Measured values published in patent US9120771B2, “Azetidine derivative and antidepressant composition including the same” (KOREA INSTITUTE OF SCIENCE AND TECHNOLOGY, priority 2011, dated 2015).
Where a name gives a salt, the structure may show the parent alone. Read-outs that look alike come from different tables or passages of the source.

Columns and labels:
[1] = target: T1, human norepinephrine transporter (Homo sapiens (Human), UniProt P23975); test: hNET binding assay ([3H]Nisoxetine); settings: membrane from MDCK cells; for inhibition at 10 µM: read-out: hNET binding assay %-inhibition (10 uM); for IC50: 6 nM [3H]Nisoxetine
T1 sequence (P23975 whole entry): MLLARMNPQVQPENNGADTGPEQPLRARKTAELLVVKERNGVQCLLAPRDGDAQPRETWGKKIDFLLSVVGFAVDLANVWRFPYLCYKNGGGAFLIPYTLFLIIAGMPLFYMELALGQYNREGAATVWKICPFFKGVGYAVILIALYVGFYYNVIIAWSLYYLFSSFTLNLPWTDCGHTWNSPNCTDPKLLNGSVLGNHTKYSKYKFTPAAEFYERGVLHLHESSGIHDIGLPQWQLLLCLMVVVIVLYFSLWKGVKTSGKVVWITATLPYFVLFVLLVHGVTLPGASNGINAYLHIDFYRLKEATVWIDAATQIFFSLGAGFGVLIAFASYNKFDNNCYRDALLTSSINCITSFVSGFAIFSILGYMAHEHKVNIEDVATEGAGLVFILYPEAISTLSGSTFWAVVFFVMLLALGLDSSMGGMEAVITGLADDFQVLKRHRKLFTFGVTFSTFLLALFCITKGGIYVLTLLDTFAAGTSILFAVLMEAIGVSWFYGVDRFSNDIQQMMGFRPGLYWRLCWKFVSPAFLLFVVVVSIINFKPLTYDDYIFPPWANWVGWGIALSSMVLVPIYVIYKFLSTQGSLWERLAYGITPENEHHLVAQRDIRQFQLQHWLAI
Method: NE transporter binding assay for evaluating binding of the compound to the norepinephrine transporter was carried out using human recombinant norepinephrine transporter membrane (PerkinElmer Life and Analytical Sciences, USA) expressed in MDCK cells and radioisotope [^3H]Nisoxetine (PerkinElmer).
That is, the test drug, 6 nM [^3H]Nisoxetine, norepinephrine transporter membrane (11 ug/well), 120 mM NaCl and 50 mM Tris-HCl buffer (pH 7.4) containing 5 mM KCl were added to obtain a reaction mixture with a final volume of 0.25 ml. After incubation for 60 minutes at 4° C., the mixture was quickly passed through a Filtermat A glass fiber filter pre-soaked with 0.5% (w/v) PEI (polyethyleneimine) using Inotech Harvester (Inotech) to terminate the reaction. After washing with cold washing buffer (50 mM Tris-HCl, pH 7.4, 0.9% NaCl) solution, the filter was covered with MeltiLex and sealed in a sample bag. After drying in an oven, radioactivity was counted using MicroBeta Plus (Wallac).
Non-specific binding was measured in the presence of 1 uM desipramine. The IC50 value of the test drug was calculated from non-linear regression analysis (GraphPad Prism Program, San Diego, USA) of each %-inhibition value obtained from the drug with concentrations of 7th and 8th steps.

[2] = target: T2, human serotonin transporter (Homo sapiens (Human), UniProt P31645); test: hSERT reuptake assay (HEK-hSERT, FDSS6000); assay type: cell-based; settings: HEK-hSERT cells
T2 sequence (P31645 whole entry): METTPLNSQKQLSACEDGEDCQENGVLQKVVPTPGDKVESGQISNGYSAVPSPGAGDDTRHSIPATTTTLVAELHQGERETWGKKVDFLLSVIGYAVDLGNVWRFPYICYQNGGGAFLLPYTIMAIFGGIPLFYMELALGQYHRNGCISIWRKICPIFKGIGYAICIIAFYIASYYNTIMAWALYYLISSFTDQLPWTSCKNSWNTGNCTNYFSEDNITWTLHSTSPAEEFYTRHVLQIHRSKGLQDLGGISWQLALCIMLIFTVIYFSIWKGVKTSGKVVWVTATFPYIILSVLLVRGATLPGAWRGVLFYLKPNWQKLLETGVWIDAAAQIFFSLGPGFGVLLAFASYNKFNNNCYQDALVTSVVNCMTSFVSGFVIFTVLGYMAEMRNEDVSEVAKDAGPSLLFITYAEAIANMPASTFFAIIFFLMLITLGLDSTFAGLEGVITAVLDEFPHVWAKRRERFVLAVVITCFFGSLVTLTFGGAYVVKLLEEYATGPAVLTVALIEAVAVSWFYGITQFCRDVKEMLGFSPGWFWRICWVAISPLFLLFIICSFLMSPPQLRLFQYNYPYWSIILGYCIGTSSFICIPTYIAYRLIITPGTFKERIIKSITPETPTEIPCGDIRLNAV

[3] = target: T3, human dopamine transporter (Homo sapiens (Human), UniProt Q01959); test: hDAT reuptake assay (HEK-hDAT, FDSS6000); assay type: cell-based; settings: HEK-hDAT cells
T3 sequence (Q01959 whole entry): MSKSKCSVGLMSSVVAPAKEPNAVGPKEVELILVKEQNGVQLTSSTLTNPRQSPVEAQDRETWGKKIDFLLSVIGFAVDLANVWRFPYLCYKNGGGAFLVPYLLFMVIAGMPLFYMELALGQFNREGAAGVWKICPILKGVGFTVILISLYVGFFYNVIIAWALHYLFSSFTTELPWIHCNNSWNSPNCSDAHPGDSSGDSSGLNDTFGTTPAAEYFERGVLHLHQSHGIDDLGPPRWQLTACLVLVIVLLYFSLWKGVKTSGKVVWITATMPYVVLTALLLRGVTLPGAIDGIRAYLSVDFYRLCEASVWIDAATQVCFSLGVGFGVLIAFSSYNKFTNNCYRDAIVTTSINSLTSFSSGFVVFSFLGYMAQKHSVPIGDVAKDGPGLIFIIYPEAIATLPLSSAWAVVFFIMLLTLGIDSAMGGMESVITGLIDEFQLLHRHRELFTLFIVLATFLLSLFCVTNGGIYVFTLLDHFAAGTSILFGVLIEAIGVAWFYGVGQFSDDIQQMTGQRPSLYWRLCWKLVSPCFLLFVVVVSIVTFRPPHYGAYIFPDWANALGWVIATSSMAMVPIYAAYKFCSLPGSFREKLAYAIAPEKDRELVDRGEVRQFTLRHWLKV

[4] = target: T2, human serotonin transporter; test: hSERT binding assay ([3H]Imipramine); settings: for inhibition at 10 µM: read-out: hSERT binding assay %-inhibition (10 uM);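 for all read-outs here: displacement of radiolabeled imipramine from the transporter, incubated 30 min at 27 °C in Tris-HCl pH 7.4 with NaCl and KCl, bound radioactivity counted after filtration, nonspecific binding defined with 200 uM imipramine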
[5] = target: T3, human dopamine transporter; test: hDAT binding assay ([3H]WIN35,428); settings: for IC50: 8 nM [3H]WIN35,428; for inhibition at 10 µM: read-out: hDAT binding assay %-inhibition (10 uM);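 for all read-outs here: displacement of the radioligand from the transporter membranes, incubated 120 min at 4 °C in Tris-HCl buffer with NaCl, pH 7.4, measured by filter-bound radioactivity counting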
[6] = target: T1, human norepinephrine transporter; test: hNET reuptake assay (HEK-hNET, FDSS6000); assay type: cell-based; settings: HEK-hNET cells
[7] = 10 uM, membrane from HEK293 cells
[8] = membrane from HEK293 cells, 2 nM [3H]Imipramine
[9] = 10 uM, membrane from CHO-K1 cells

Structure (SMILES) | inhibition at 10 µM [1] [%] | IC50 [1] [nM] | IC50 ([2]; Table 3) [nM] | IC50 ([3]; Table 3) [nM] | IC50 [4, 8] [nM] | IC50 ([5]; membrane from CHO-K1 cells) [nM] | IC50 ([6]; Table 3) [nM] | melting point [°C] | IC50 ([2]; Table 4) [nM] | IC50 ([3]; Table 4) [nM] | IC50 ([6]; Table 4) [nM] | further results
c1ccc(OC(c2ccccc2)C2CNC2)cc1 (stereo not drawn) [KHG26765, hydrochloride] | 90 | 1660 | 50 | 380 | 112 | 857 | 40 |  |  |  |  | inhibition at 10 µM [4, 7]: 98%; inhibition at 10 µM [5]: 87%
Cl.Clc1ccc(C(Oc2ccccc2)C2CNC2)cc1 (stereo not drawn) [KHG26766, 3-((4-chlorophenyl)(phenoxy)methyl)azetidine hydrochloride] | 90 | 90.2 | 40 | 150 |  | 227 | 40 | 191 |  |  |  | IC50 [4]: 9.2 nM; inhibition at 10 µM [4]: 98%; inhibition at 10 µM [5]: 94%
Clc1ccc(C(Oc2ccccc2)C2CNC2)cc1Cl (stereo not drawn) [KHG26767, 3-((3,4-dichlorophenyl)(phenoxy)methyl)azetidine hydrochloride] | 100 | 5.5 | 50 | 60 | 4.3 | 68.8 | 30 |  |  |  |  | inhibition at 10 µM [4, 7]: 98%; inhibition at 10 µM [5, 9]: 94%
Cl.c1ccc(COC(c2ccccc2)C2CNC2)cc1 (stereo not drawn) [KHG26768, 3-((benzyloxy)(phenyl)methyl)azetidine hydrochloride] | 84 | 2300 | 4600 | 1900 | 82.9 | 985 | 800 | 185 |  |  |  | inhibition at 10 µM [4, 7]: 97%; inhibition at 10 µM [5]: 90%
Cl.O=C(OC(c1ccc(Cl)cc1)C1CNC1)c1ccccc1 (stereo not drawn) [KHG26772, azetidine-3-ly(4-chlorophenyl)methyl benzoate hydrochloride] |  | 3480 | 2600 | 1300 | 357 | 319 | 2500 |  |  |  |  | hNET binding assay %-inhibition (10 uM) [1]: 90%; hSERT binding assay %-inhibition (10 uM) [4, 7]: 96%; hDAT binding assay %-inhibition (10 uM) [5, 9]: 66%
Cl.O=C(OC(c1ccc(Cl)c(Cl)c1)C1CNC1)c1ccccc1 (stereo not drawn) [KHG26773, azetidine-3-ly(3,4-dichlorophenyl)methyl benzoate hydrochloride] |  | 214 | 900 | 500 | 69.9 | 241 | 1100 |  |  |  |  | hNET binding assay %-inhibition (10 uM) [1]: 100%; hSERT binding assay %-inhibition (10 uM) [4, 7]: 100%; hDAT binding assay %-inhibition (10 uM) [5, 9]: 97%
CN1CC(C(Oc2ccccc2)c2ccc3ccccc3c2)C1 (stereo not drawn) [KHG26907, 1-methyl-3-(naphthalene-2-yl(phenoxy)methyl)azetidine] |  |  |  |  |  |  |  |  | 202 | 223 | 87.9 | 
CC(C)(C)OC(c1ccc(Cl)c(Cl)c1)C1CNC1.Cl (stereo not drawn) [KHG27252, 3-(tertiarybutoxy(3,4-dichlorophenyl)methyl)azetidine hydrochloride] |  |  |  |  |  |  |  | 159.9 | 87 | 100 | 96 | 
Cl.Clc1ccc(C(OC2CCC2)C2CNC2)cc1Cl (stereo not drawn) [KHG27253, 3-(cyclobutoxy(3,4-dichlorophenyl)methyl)azetidine hydrochloride] |  |  |  |  |  |  |  | 166.1 | 25.6 | 33.4 | 11 | 
Clc1ccc(C(OC2CCCC2)C2CNC2)cc1Cl (stereo not drawn) [KHG27254, 3-((cyclopentyloxy)(3,4-dichlorophenyl)methyl)azetidine hydrochloride] |  |  |  |  |  |  |  |  | 25.8 | 25.8 | 15.8 | 
Cl.Clc1ccc(C(OC2CCCCC2)C2CNC2)cc1Cl (stereo not drawn) [KHG27255, 3-((cyclohexyloxy)(3,4-dichlorophenyl)methyl)azetidine hydrochloride] |  |  |  |  |  |  |  | 189.4 | 58.4 | 54.8 | 14.2 | 
CCCC(Oc1ccc2ccccc2c1)C1CNC1.Cl (stereo not drawn) [KHG27284, 3-(1-(naphthalene-2-yloxy)butyl)azetidine hydrochloride] |  |  |  |  |  |  |  | 77 | 8.55 | 710 | 79.5 | 
